Laboratory results as given in patent publication US12583856B2, “Inhibitors of protein kinase A” (Blueprint Medicines Corporation, priority 2021, dated 2026).

Key:
PRKACA = molecular target: T1, PRKACA (Homo sapiens, UniProt P17612); assay: PRKACA assay at Km (EZ Reader 2 electrophoretic mobility shift); assay type: biochemical; conditions: 5 μM ATP (Km), 1 μM Kemptide, 90 minutes at 25 C; read-out: Enz PRKACA IC50
T1 construct: purchased Millipore 539482
Protocol: (§1) A Perkin Elmer electrophoretic mobility shift platform (the EZ Reader 2) was used to assess the activity of test compounds against a kinase of interest. Fluorescently labeled substrate peptide was incubated in the presence of kinase, ATP, and the test compound, so that a portion of the peptide was phosphorylated by the enzyme. At the end of the reaction, the mix of phosphorylated (product) and non-phosphorylated (substrate) peptide containing solutions was passed through the microfluidic system of the Perkin Elmer EZ Reader 2 under an applied potential difference. The presence of the phosphate group on the product peptide provided a difference in mass and charge between those of the substrate peptide, resulting in a separation of the substrate and product pools in the sample. As the stopped solutions passed under the instrument's LED light the phosphorylated and un-phosphorylated fluorophore bound peptides were detected and resolved as separate peaks. The ratio between these peaks therefore reflected the test compound's impact on the kinase at that concentration in that well under those conditions.
PRKACA assay at Km: In each well of a 384-well plate, 0.007 ng/ul (0.18 nM) of PRKACA enzyme (Millipore: 539482) was incubated in a total of 12.5 μl of buffer (100 mM HEPES pH 7.5, 0.015% Brij 35, 10 mM MgCl2, 1 mM DTT) with 1 μM Kemptide peptide substrate (5-FAM-LRRASLG) (Anaspec 29933) and 5 μM ATP at 25 C for 90 minutes in the presence or absence of a dosed concentration series of test compounds (1% DMSO final concentration). The reaction was stopped by the addition of 80 μl of Stop buffer (100 mM HEPES pH 7.5, 0.015% Brij 35, 35 mM EDTA and 0.2% of Coating Reagent 3 (Perkin Elmer)). The plate was then read on the EZ Reader 2 (protocol settings: −2.0 psi, upstream voltage −700, downstream voltage −2700, post sample sip 60 seconds). Data was normalized to 0% and 100% inhibition controls and the IC50 calculated using a 4-parameter fit using GraphPad Prism.

PRKACA-DNAJB1 = molecular target: T2, PRKACA-DNAJB1 (Homo sapiens, UniProt P17612); assay: PRKACA-DNAJB1 enzyme assay (EZ Reader 2 electrophoretic mobility shift); assay type: biochemical; conditions: read-out: Enz PRKACA-DNAJB1 IC50
T2 construct: DNAJB1 (fusion partner, P25685); the other entry of the earlier key: DNAJB1 (P25685, DnaJ homolog subfamily B member 1)
Protocol: as §1

[1] = system: PKA (phosphorylation of VASP on Serine 157); assay: Cellular potency assay: P-VASP(157) HTRF in Forskolin-stimulated Huh7 cells; assay type: cell-based; conditions: Homo sapiens, Huh-7, 4 hours compound, 5 μM Forskolin 30 minutes, read-out: Phos VASP(S157) IC50
From the text: PKA directly phosphorylate VASP on Serine 157. Phosphorylation of VASP on Serine 157. P-VASP(157) was therefore used as a readout of PKA cellular activity. P-VASP(157) was detected with a HTRF assay, which is based on a TR-FRET sandwich immunoassay-based format comprising two specific anti-VASP antibodies following the manufactors protocol (Cisbio, Catalog No. 63ADK066PEH). PKA was activated in the assay by the addition of Forskolin (Sigma-Aldrich, Catalog No. F3917).
Dose response in Forskolin-stimulated human Huh7 cells was measured as follows. Briefly, Huh7 cells were plated at a density of 2×10^4 cells per well in a 384-well opti-well cell culture plate in 15 μl of serum- and phenol-free Dulbecco's Modified Eagle Medium (DMEM, Gibco Catalog No. 21063-029), and incubated for over night at 37° C., 5% CO2. The next day, 3 μl of a dosed concentration series of test compound (0.24%) DMSO final concentration) was added to the wells, and the cells were incubated for an additional 4 hours at 37° C., 5% CO2. 2 μl of Forskolin was added at a final concentration of 5 μM and the plates were incubated for 30 minutes at 37° C., 5% CO2. 5 μl of lysis buffer containing 1% HALT protease cocktail inhibitors (ThermoFisher, Catalog No. 78430), was added to the cells and the mixture was incubated under gentle shaking for 30 min at room temperature. 10 μl of this lysate was transferred to a 384-well proxi plate and 2.5 μL of the premixed antibody solution was added. An antibody solution was prepared by combining phopho-VASP cryptate antibody and phospho-VASP d2 antibody, at twenty-fold dilution into a buffer solution following the manufactors' protocol. The lysate and antibody mixture was incubated for either 3 h at room temperature or overnight at 4° C. The fluorescence emission at two different wavelengths (665 nm and 620 nm) was read on an EnVision instrument.

Row | Compound | IC50 (PRKACA) | IC50 (PRKACA-DNAJB1) | IC50 [1]
1 | O=C(N[C@H]1CCOc2ccc(F)c(F)c21)c1ccc(-c2ccnc3[nH]ccc23)cc1 [Compound 129, N-[(4S)-5,6-Difluoro-3,4-dihydro-2H-1-benzopyran-4-yl]-4-{1H-pyrrolo[2,3-b]pyridin-4-yl}benzamide] | ≤ 1 nM | ≤ 1 nM | < 50 nM
2 | O=C(N[C@H]1C[C@@H](O)c2cccc(F)c21)c1ccc(-c2ccnc3[nH]ccc23)nc1 (single isomer, unassigned) [Compound 119] | ≤ 1 nM | 1.01 to 5 nM | > 100 nM
3 | CO[C@@H]1CCN([C@@H]2Cc3cccc(F)c3[C@H]2NC(=O)c2ccc(-c3ccnc4[nH]ccc34)nc2)C1 [Compound 173] | ≤ 1 nM | ≤ 1 nM | 0.01 to 100 nM
4 | O=C(N[C@@H]1c2c(ccc(F)c2F)C[C@@H]1O)c1ccc(-c2ccnc3[nH]cc(F)c23)nc1 [Compound 146] | ≤ 1 nM | ≤ 1 nM | 0.01 to 100 nM
5 | C[C@H]1Oc2ccc(F)c(F)c2[C@@H](NC(=O)c2ccc(-c3ccnc4[nH]ccc34)nc2)[C@H]1O [Compound 151] | ≤ 1 nM | ≤ 1 nM | < 50 nM
6 | C[C@@H]1Oc2ccc(F)c(F)c2[C@@H](NC(=O)c2ccc(-c3ccnc4[nH]ccc34)nc2)[C@@H]1O [Compound 150] | ≤ 1 nM | ≤ 1 nM | < 50 nM
7 | N[C@@H]1Cc2ccccc2[C@H]1NC(=O)c1ccc(-c2ccnc3[nH]ccc23)cc1 [Compound 100, N-[(1R,2R)-2-Amino-2,3-dihydro-1H-inden-1-yl]-4-{1H-pyrrolo[2,3-b]pyridin-4-yl}benzamide] | ≤ 1 nM | ≤ 1 nM | < 50 nM
8 | O=C(N[C@@H]1c2c(F)cccc2OC[C@@H]1O)c1ccc(-c2ccnc3[nH]ccc23)nc1 [Compound 126, N-[(3R,4R)-5-Fluoro-3-hydroxy-3,4-dihydro-2H-1-benzopyran-4-yl]-6-{1H-pyrrolo[2,3-b]pyridin-4-yl}pyridine-3-carboxamide] | ≤ 1 nM | 1.01 to 5 nM | < 50 nM
9 | O=C(N[C@H]1CCOc2cc(F)ccc21)c1ccc(-c2ccnc3[nH]ccc23)cc1 [Compound 113] | ≤ 1 nM | 1.01 to 5 nM | 0.01 to 100 nM
10 | O=C(N[C@@H]1c2c(Cl)cccc2C[C@H]1N1C[C@@H](F)[C@@H](O)C1)c1ccc(-c2ccnc3[nH]ccc23)nc1 [Compound 186] | ≤ 1 nM | 1.01 to 5 nM | < 50 nM
11 | Cc1c[nH]c2nccc(-c3ccc(C(=O)N[C@@H]4c5c(F)cccc5C[C@H]4N4CCCC4)cn3)c12 [Compound 165] | ≤ 1 nM | ≤ 1 nM | < 50 nM
12 | O=C(N[C@H]1CCOc2ccccc21)c1ccc(-c2ccnc3[nH]cc(F)c23)cc1 [Compound 115] | ≤ 1 nM | ≤ 1 nM | < 50 nM
13 | Cc1c[nH]c2nccc(-c3ccc(C(=O)N[C@@H]4c5c(ccc(F)c5F)O[C@H](C)[C@@H]4O)cn3)c12 [Compound 161] | ≤ 1 nM | ≤ 1 nM | 0.01 to 100 nM
14 | O=C(N[C@@H]1c2c(Cl)cccc2C[C@H]1N1C[C@H](O)[C@@H](F)C1)c1ccc(-c2ccnc3[nH]ccc23)nc1 [Compound 185] | ≤ 1 nM | ≤ 1 nM | < 50 nM
15 | O=C(N[C@@H]1c2c(F)cccc2C[C@H]1N1CCCC1)c1ccc(-c2ccnc3[nH]ccc23)nc1 [Compound 157, N-[(1R,2R)-7-Fluoro-2-(pyrrolidin-1-yl)-2,3-dihydro-1H-inden-1-yl]-6-{1H-pyrrolo[2,3-b]pyridin-4-yl}pyridine-3-carboxamide] | ≤ 1 nM | ≤ 1 nM | < 50 nM
16 | O=C(N[C@@H]1c2ccccc2C[C@@H]1O)c1ccc(-c2ccnc3[nH]ccc23)cc1 [Compound 101, N-[(1R,2S)-2-Hydroxy-2,3-dihydro-1H-inden-1-yl]-4-{1H-pyrrolo[2,3-b]pyridin-4-yl}benzamide] | ≤ 1 nM | ≤ 1 nM | < 50 nM
17 | CN(C)C(=O)[C@@H]1CCCN1[C@@H]1Cc2cccc(Cl)c2[C@H]1NC(=O)c1ccc(-c2ccnc3[nH]ccc23)nc1 [Compound 191] | ≤ 1 nM | ≤ 1 nM | < 50 nM
18 | O=C(N[C@@H]1c2ccccc2C[C@H]1OCCO)c1ccc(-c2ccnc3[nH]ccc23)cc1 [Compound 134, N-[(1R,2R)-2-(2-Hydroxyethoxy)-2,3-dihydro-1H-inden-1-yl]-4-{1H-pyrrolo[2,3-b]pyridin-4-yl}benzamide] | ≤ 1 nM | ≤ 1 nM | < 50 nM
19 | Cc1c[nH]c2nccc(-c3ccc(C(=O)N[C@@H]4c5c(ccc(F)c5F)C[C@H]4N4CCCC4)cn3)c12 [Compound 175] | ≤ 1 nM | ≤ 1 nM | < 50 nM
20 | O=C(N[C@@H]1c2c(F)cccc2OC[C@@H]1O)c1ccc(-c2ccnc3[nH]cc(F)c23)nc1 [Compound 141] | ≤ 1 nM | ≤ 1 nM | 0.01 to 100 nM
21 | O=C(N[C@@H]1c2c(F)cccc2C[C@H]1N1CCCC1)c1ccc(-c2ccnc3[nH]cc(F)c23)nc1 [Compound 169] | ≤ 1 nM | ≤ 1 nM | < 50 nM
22 | O=C(N[C@@H]1c2ccccc2C[C@@H]1O)c1ccc(-c2ccnc3[nH]cc(F)c23)cc1 [Compound 112, 4-(3-Fluoro-1H-pyrrolo[2,3-b]pyridin-4-yl)-N-((1R,2S)-2-hydroxy-2,3-dihydro-1H-inden-1-yl)benzamide] | ≤ 1 nM | ≤ 1 nM | 0.01 to 100 nM
23 | Cc1c[nH]c2nccc(-c3ccc(C(=O)N[C@@H]4c5c(ccc(F)c5F)O[C@@H](C)[C@H]4O)cn3)c12 [Compound 160] | ≤ 1 nM | ≤ 1 nM | < 50 nM
24 | O=C(N[C@@H]1c2ccccc2C[C@H]1O)c1ccc(-c2ccnc3[nH]cc(F)c23)cc1 [Compound 111] | ≤ 1 nM | ≤ 1 nM | < 50 nM
25 | Cc1c[nH]c2nccc(-c3ccc(C(=O)N[C@@H]4c5ccccc5C[C@H]4N4CCCC4)cn3)c12 [Compound 152] | 1.01 to 5 nM | 1.01 to 5 nM | 0.01 to 100 nM
26 | O=C(N[C@@H]1c2c(F)cc(C(F)F)cc2C[C@@H]1O)c1ccc(-c2ccnc3[nH]ccc23)nc1 [Compound 154] | ≤ 1 nM | ≤ 1 nM | < 50 nM
27 | O=C(N[C@@H]1c2ccccc2OC[C@@H]1O)c1ccc(-c2ccnc3[nH]cc(F)c23)cc1 [Compound 123] | ≤ 1 nM | ≤ 1 nM | < 50 nM
28 | C[C@]1(O)CCN([C@@H]2Cc3cccc(Cl)c3[C@H]2NC(=O)c2ccc(-c3ccnc4[nH]ccc34)nc2)C1 [Compound 180] | ≤ 1 nM | ≤ 1 nM | < 50 nM
29 | O=C(N[C@H]1CCOc2ccc(F)cc21)c1ccc(-c2ccnc3[nH]ccc23)cc1 [Compound 114] | ≤ 1 nM | ≤ 1 nM | < 50 nM
30 | O=C(N[C@@H]1c2c(F)cccc2C[C@H]1N1CC[C@@H](O)C1)c1ccc(-c2ccnc3[nH]ccc23)nc1 [Compound 167] | ≤ 1 nM | ≤ 1 nM | 0.01 to 100 nM
